Common to all, as to assay: relative viability (nuclei count vs DMSO), 5 days (fraction); higher = more cells survive
Compound in the test “Selisistat + AZD7762”: C1CC(C2=C(C1)C3=C(N2)C=CC(=C3)Cl)C(=O)N [Selisistat] + NC(=O)Nc1cc(-c2cccc(F)c2)sc1C(=O)N[C@H]1CCCNC1 [AZD7762] (partner 0.2 µM)
The method in brief:
(§1)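 Lung cancer cell lines in 1536-well plates got either a single drug or a fixed anchor-drug dose together with five library-drug doses (not always all listed) in √10 steps, by pin tool, on the day after seeding. Nuclei were counted after 5 days, and relative viability is the treated-to-vehicle ratio of nuclei counts. Values are medians of duplicate plates.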

Compound in the test “Selisistat + Olaparib”: C1CC(C2=C(C1)C3=C(N2)C=CC(=C3)Cl)C(=O)N [Selisistat] + O=C(c1cc(Cc2n[nH]c(=O)c3ccccc23)ccc1F)N1CCN(C(=O)C2CC2)CC1 [Olaparib] (partner 8 µM)
The method in brief: as §1

Compound in the test “Serdemetan + Foretinib”: c1ccc2c(CCNc3ccc(Nc4ccncc4)cc3)c[nH]c2c1 [Serdemetan] + COc1cc2c(Oc3ccc(NC(=O)C4(C(=O)Nc5ccc(F)cc5)CC4)cc3F)ccnc2cc1OCCCN1CCOCC1 [Foretinib] (partner 0.25 µM)
The method in brief:
as §1

Compound in the test “Serdemetan + Crizotinib”: c1ccc2c(CCNc3ccc(Nc4ccncc4)cc3)c[nH]c2c1 [Serdemetan] + C[C@@H](Oc1cc(-c2cnn(C3CCNCC3)c2)cnc1N)c1c(Cl)ccc(F)c1Cl [Crizotinib] (partner 1 µM)
The gist of the method: as §1

Data on six cell lines can be found in the supplement of paper PMC10307832.

NCI-H1666: the relative viability in the test with Selisistat + AZD7762 (first compound 0.4 µM) was found to be 0.841; with Selisistat + AZD7762 (first compound 1.265 µM), 0.83; with Selisistat + AZD7762 (first compound 4 µM), 0.806; with Selisistat + AZD7762 (first compound 12.65 µM), 0.895; with Selisistat + AZD7762 (first compound 40 µM), 0.96; with Selisistat + Olaparib (first compound 0.4 µM) it was 0.798. Moreover, the relative viability in the test with Selisistat + Olaparib (first compound 1.265 µM) worked out at 0.763; with Selisistat + Olaparib (first compound 4 µM), 0.745; in the test with Selisistat + Olaparib (first compound 12.65 µM), 0.811; with Selisistat + Olaparib (first compound 40 µM), 0.631; with Serdemetan + Foretinib (first compound 0.04 µM), 0.967; with Serdemetan + Foretinib (first compound 0.1265 µM) it was 0.909. Also, the relative viability was 0.937 with Serdemetan + Foretinib (first compound 0.4 µM); 0.591 with Serdemetan + Foretinib (first compound 1.265 µM); 0.742 in the test with Serdemetan + Foretinib (first compound 4 µM); 1.01 in the test with Serdemetan + Crizotinib (first compound 0.04 µM); 0.981 with Serdemetan + Crizotinib (first compound 0.1265 µM); 0.907 in the test with Serdemetan + Crizotinib (first compound 0.4 µM). The relative viability in the test with Serdemetan + Crizotinib (first compound 1.265 µM) came out at 0.663; with Serdemetan + Crizotinib (first compound 4 µM), 0.836.

Regarding NCI-H1703, the relative viability in the test with Selisistat + AZD7762 (first compound 0.4 µM) worked out at 0.116; with Selisistat + AZD7762 (first compound 1.265 µM), 0.114; in the test with Selisistat + AZD7762 (first compound 12.65 µM), 0.139; with Selisistat + AZD7762 (first compound 40 µM), 0.136; with Selisistat + Olaparib (first compound 0.4 µM) it was 0.416; with Selisistat + Olaparib (first compound 1.265 µM) it was 0.425. In addition, the relative viability with Selisistat + Olaparib (first compound 4 µM) worked out at 0.362; with Selisistat + Olaparib (first compound 12.65 µM), 0.42; with Selisistat + Olaparib (first compound 40 µM), 0.433; with Serdemetan + Foretinib (first compound 0.04 µM), 0.335; with Serdemetan + Foretinib (first compound 0.1265 µM), 0.338; with Serdemetan + Foretinib (first compound 0.4 µM), 0.383. For the same cell line, the relative viability with Serdemetan + Foretinib (first compound 1.265 µM) was 0.289; with Serdemetan + Foretinib (first compound 4 µM), 0.341; in the test with Serdemetan + Crizotinib (first compound 0.04 µM) it was 0.665; in the test with Serdemetan + Crizotinib (first compound 0.1265 µM), 0.872; with Serdemetan + Crizotinib (first compound 0.4 µM) it was 0.815; in the test with Serdemetan + Crizotinib (first compound 1.265 µM) it was 0.73. Moreover, in the test with Serdemetan + Crizotinib (first compound 4 µM), the relative viability was determined as 0.217.

For NCI-H1734, the relative viability came out at 0.594 with Selisistat + AZD7762 (first compound 0.4 µM); 0.485 with Selisistat + AZD7762 (first compound 1.265 µM); 0.453 with Selisistat + AZD7762 (first compound 4 µM); 0.505 in the test with Selisistat + AZD7762 (first compound 12.65 µM); 0.607 with Selisistat + AZD7762 (first compound 40 µM); 0.667 in the test with Selisistat + Olaparib (first compound 0.4 µM). In addition, the relative viability with Selisistat + Olaparib (first compound 1.265 µM) came out at 0.553; with Selisistat + Olaparib (first compound 4 µM), 0.731; with Selisistat + Olaparib (first compound 12.65 µM), 0.583; with Selisistat + Olaparib (first compound 40 µM) it was 0.658; in the test with Serdemetan + Foretinib (first compound 0.04 µM), 0.692; in the test with Serdemetan + Foretinib (first compound 0.1265 µM) it was 0.335. In addition, the relative viability with Serdemetan + Foretinib (first compound 0.4 µM) was 0.223; with Serdemetan + Foretinib (first compound 1.265 µM) it was 0.126; with Serdemetan + Foretinib (first compound 4 µM), 0.204; with Serdemetan + Crizotinib (first compound 0.04 µM) it was 0.61; with Serdemetan + Crizotinib (first compound 0.4 µM), 0.196; in the test with Serdemetan + Crizotinib (first compound 1.265 µM), 0.144. For the same cell line, in the test with Serdemetan + Crizotinib (first compound 4 µM), the relative viability came to 0.155.

As to NCI-H1755, the relative viability with Selisistat + AZD7762 (first compound 0.4 µM) worked out at 0.427; in the test with Selisistat + AZD7762 (first compound 1.265 µM), 0.391; in the test with Selisistat + AZD7762 (first compound 4 µM) it was 0.407; in the test with Selisistat + AZD7762 (first compound 12.65 µM) it was 0.407; in the test with Selisistat + AZD7762 (first compound 40 µM), 0.43; with Selisistat + Olaparib (first compound 0.4 µM) it was 0.955. Further, the relative viability with Selisistat + Olaparib (first compound 1.265 µM) turned out to be 0.835; in the test with Selisistat + Olaparib (first compound 4 µM), 0.941; in the test with Selisistat + Olaparib (first compound 12.65 µM) it was 0.875; in the test with Selisistat + Olaparib (first compound 40 µM), 0.952; with Serdemetan + Foretinib (first compound 0.04 µM), 0.901; in the test with Serdemetan + Foretinib (first compound 0.1265 µM) it was 0.934. Further, the relative viability with Serdemetan + Foretinib (first compound 0.4 µM) is 0.846; with Serdemetan + Foretinib (first compound 1.265 µM), 0.674; with Serdemetan + Foretinib (first compound 4 µM), 0.599; with Serdemetan + Crizotinib (first compound 0.04 µM), 0.83; in the test with Serdemetan + Crizotinib (first compound 0.1265 µM), 0.768; in the test with Serdemetan + Crizotinib (first compound 0.4 µM), 0.767. Further, the relative viability in the test with Serdemetan + Crizotinib (first compound 1.265 µM) is 0.323; with Serdemetan + Crizotinib (first compound 4 µM), 0.428.

For NCI-H1915, the relative viability came to 0.668 in the test with Selisistat + AZD7762 (first compound 0.4 µM); 0.687 with Selisistat + AZD7762 (first compound 1.265 µM); 0.775 with Selisistat + AZD7762 (first compound 4 µM); 0.674 in the test with Selisistat + AZD7762 (first compound 12.65 µM); 0.757 with Selisistat + AZD7762 (first compound 40 µM); 0.329 with Selisistat + Olaparib (first compound 0.4 µM). Moreover, the relative viability with Selisistat + Olaparib (first compound 1.265 µM) is 0.26; in the test with Selisistat + Olaparib (first compound 4 µM), 0.25; with Selisistat + Olaparib (first compound 12.65 µM) it was 0.252; with Selisistat + Olaparib (first compound 40 µM), 0.304; with Serdemetan + Foretinib (first compound 0.04 µM), 1.14; with Serdemetan + Foretinib (first compound 0.1265 µM), 1.09. Moreover, the relative viability was found to be 1.07 with Serdemetan + Foretinib (first compound 0.4 µM); 1.03 with Serdemetan + Foretinib (first compound 1.265 µM); 0.837 with Serdemetan + Foretinib (first compound 4 µM); 0.86 with Serdemetan + Crizotinib (first compound 0.04 µM); 0.887 with Serdemetan + Crizotinib (first compound 0.1265 µM); 0.833 with Serdemetan + Crizotinib (first compound 0.4 µM). The relative viability in the test with Serdemetan + Crizotinib (first compound 1.265 µM) stood at 0.709; with Serdemetan + Crizotinib (first compound 4 µM), 0.59.

As to NCI-H1944, the relative viability came out at 0.523 with Selisistat + AZD7762 (first compound 0.4 µM); 0.509 with Selisistat + AZD7762 (first compound 1.265 µM); 0.428 with Selisistat + AZD7762 (first compound 4 µM); 0.653 in the test with Selisistat + AZD7762 (first compound 12.65 µM); 0.586 with Selisistat + AZD7762 (first compound 40 µM); 0.431 with Selisistat + Olaparib (first compound 0.4 µM). Further, the relative viability with Selisistat + Olaparib (first compound 1.265 µM) came to 0.381; with Selisistat + Olaparib (first compound 4 µM), 0.335; with Selisistat + Olaparib (first compound 12.65 µM), 0.357; with Selisistat + Olaparib (first compound 40 µM), 0.413; with Serdemetan + Foretinib (first compound 0.04 µM), 0.832; with Serdemetan + Foretinib (first compound 0.1265 µM) it was 0.836. For the same cell line, the relative viability amounted to 0.828 with Serdemetan + Foretinib (first compound 0.4 µM); 0.406 with Serdemetan + Foretinib (first compound 1.265 µM); 0.392 in the test with Serdemetan + Foretinib (first compound 4 µM); 0.973 in the test with Serdemetan + Crizotinib (first compound 0.04 µM); 1.02 with Serdemetan + Crizotinib (first compound 0.1265 µM); 0.904 in the test with Serdemetan + Crizotinib (first compound 0.4 µM). For the same cell line, in the test with Serdemetan + Crizotinib (first compound 4 µM), the relative viability came out at 0.419.
